Data taken from patent US20210108199A1, “Treatment for aggressive cancers by targeting C9ORF72” (The Trustees of Columbia University in the City of New York, priority 2017, published 2021).

What was measured:
Assay type in all cases: cell-based
[1] = tested on: γ-H2AX; test: γ-H2AX western blot and foci quantitation; conditions: U87 cells
Experimental: Cells were treated with control and C9 siRNA for three days. Cells then were fixed and stained as described in the as described above with p-H2AX(S139, #25575) antibody. For a DNA damage positive control, 0.5 μM doxorubicin hydrochloride (Sigma™, D151510MG) was used for 24 hours before imaging. Cells were then imaged using LSM 700 Carl Zeiss™. To quantify p-H2AX foci we used a publicly available software FoCo™ as described previously.
To further confirm the presence of DNA damage upon C9 KD, the DNA damage marker γ-H2AX was used as a probe on C9 KD. […] Immunofluorescence was used to image and quantitate γ-H2AX foci in control, C9 KD and doxorubicin-treated U87 cells.
FIG. 25A is a WB showing γ-H2AX and ubiquitinated γ-H2AX, control (siCtrl) and C9 KD (siC9; SEQ ID NO:631), with loading of control actin. FIG. 25B is a set of IF images of U87 cells stained for γ-H2AX (green). FIG. 25C is a graph quantitating about 90 cells (from three biological replicates) for γ-H2AX foci per cell between control (siCtrl) C9 KD (siC9) and DOX-treated U87 cells. Statistical significance was assessed by an unpaired t-test: NS P>0.05, *P≤0.05, **P≤0.01, ***P≤0.001 ****P≤0.0001.

[2] = tested on: C9; test: C9 knock down efficiency by western blot; conditions: U87 cells, vs control siRNA
Experimental: For siRNA knockdown experiments, siRNAs targeting C9 mRNA were designed with the Whitehead website (sirna.wi.mit.edu) and with RNAxs webserver (rna.tbi.univie.ac.at/cgi-bin/RNAxs). All siRNAs were obtained from GenePharma™. Lipofectamine RNAiMAX (Thermo Scientific™) was used as the transfection reagent for all siRNA experiments (according to the manufacturer's instructions). siRNA concentration was 40 nM per 60 mm plate. After 6 hours, media was changed and cells were treated again with siRNA after 48 hours. For RNA and protein analysis, cells were harvested after 48 hours following the second treatment. All KD experiments were performed in three biological replicates. The siRNA sequences were as follows: […] (SEQ ID NO:631; sense) and […] […]
For Western blot analysis, cells were lysed with lysis buffer (20 mM sodium phosphate (pH 7.0), 250 mM NaCl, 30 mM sodium pyrophosphate, 0.1% Nonidet™ P-40, 5 mM EDTA, 10 mM NaF, 0.1 mM Na3VO4, and 1 mM PMSF) supplemented with complete protease inhibitors (Roche™) and homogenized by passage through a 28 gauge needle. Protein concentration was measured with a Bio-Rad™ protein assay dye reagent and results were read using a spectrophotometer (BiophotometerPlus™ by Eppendorf™). […] Quantitation of blots was performed Image Studio Lite software (LI-COR Biosciences™). […]

[3] = tested on: p53; test: Western blot of phospho-p53, p53 and p21; conditions: U87 cells
Experimental: For Western blot analysis, cells were lysed with lysis buffer (20 mM sodium phosphate (pH 7.0), 250 mM NaCl, 30 mM sodium pyrophosphate, 0.1% Nonidet™ P-40, 5 mM EDTA, 10 mM NaF, 0.1 mM Na3VO4, and 1 mM PMSF) supplemented with complete protease inhibitors (Roche™) and homogenized by passage through a 28 gauge needle. Protein concentration was measured with a Bio-Rad™ protein assay dye reagent and results were read using a spectrophotometer (BiophotometerPlus™ by Eppendorf™). Protein extracts were resolved by SDS PAGE on gradient (Thermo Fisher™) or 12% gels. Proteins were then electrotransferred at 350 mA for 80 minutes onto a PVDF membrane (Immobilon-P PVDF). Membranes were blocked with PBST with 5% milk and 1% BSA for 30 minutes. Quantitation of blots was performed Image Studio Lite software (LI-COR Biosciences™).
One of the responses to DNA damage is activation of p53 by ATM. Upon DNA damage, ATM activation leads to p53 phosphorylation, which activates p53 as a transcription factor. Since increased DNA damage was observed upon C9 KD, whether p53 is activated in C9 depleted cells was investigated. First, total p53 levels were measured in U87 cells treated with control and two independent siRNAs against C9. […] Then, the levels of phosphorylated (active) p53 (at s15) was measured. Phosphorylation of s15 on p53 was increased in both C9 siRNA samples.

[4] = tested on: HeLa cells; test: Mitochondrial live imaging in HeLa cells; conditions: vs control
Experimental: Mitochondrial accumulation then was investigated in other cell lines. C9 KD was performed in HeLa cells, followed by a fluorescent mitochondrial dye for live imaging. […] To study the mitochondrial dysfunction phenotype upon C9 KD in a non-cancer cell line, C9 was knocked down in rat-derived cortical neurons in combination with a mitochondrial stain.

[5] = tested on: U87 cells; test: Dextran measurement of macropinocytosis; conditions: fluorescein dextran
Experimental: U87 cells were treated with control and C9 siRNA for a total of 3 days. At day 2, cells were treated with a final concentration of 20 μM dextran and incubased overnight. On day 3, cells were washed with phenol red-free DMEM and then imaged using excitation/emission for fluorescein (494/521) on an LSM 700; Carl Zeiss™ microscope.
In this study, a fluid phase marker, fluorescein dextran, was added to the media. If the vacuoles are macropinosomes, the marker will be taken up and internalized, resulting in green fluorescent macropinocytosis.
The right images are a merge between the left and middle images. The scale bar represents 10 μm. White arrows indicate the position of vacuoles. In FIG. 8, the upper panels are fluorescent images (Alexa™ 488) of U87 cells treated with control (siCtrl) and C9 (siC9; SEQ ID NO:631) siRNA as indicated incubated in fluorescein dextran (green). The lower panels are the same cells imaged in phase contrast.

## siC9: siRNA targeting C9 mRNA: UUAAUGAAACAAUAAUCACUC (SEQ ID NO:631; sense) and GUGAUUAUUGUUUCAUUAAUC (SEQ ID NO:632; antisense) (listed as RNA, chemistry not given here)
[1]
  γ-H2AX levels (western blot): increased γ-H2AX levels
[1]; immunofluorescence
  γ-H2AX foci per cell: significant increase in γ-H2AX foci
[2]
  C9 expression (western blot): reduced expression compared to control
[3]
  p21 protein levels: increased p21 protein levels
  phosphorylation of s15 on p53: increased
  total p53 levels: elevates p53 levels
[4]
  mitochondrial network organization: mitochondrial network disorganization
[5]
  dextran in vacuoles: formation of vacuoles filled with dextran
